Columns and labels:
[1] = Measurement of Log P values by HPLC on reversed phase columns (EEC directive 79/831 Annex V.A8); assay type: physicochemical; settings: Table 1, compounds of formula (I); method [a]: LC-UV, acidic range, 0.1% formic acid in water and acetonitrile
Pyricularia oryzae = assay: microbe, parasite or virus in culture; assay type: cell-based; settings: 120 h
[2] = test system: Colletotrichum lindemuthianum; assay: Colletotrichum lindemuthianum in vitro cell test; assay type: cell-based; settings: 144 h, liquid culture, 6 days incubation, read-out: efficacy (inhibition of fungal growth); for inhibition at 20 ppm: 20 ppm of active ingredient; for inhibition at 50 µM: 50 μMol/l of active ingredient
Procedure: (§1) B-7. Colletotrichum lindemuthianum In Vitro Cell Test • Solvent: DMSO • Culture medium: 14.6 g anhydrous D-glucose (VWR), 7.1 g Mycological Peptone (Oxoid), 1.4 g granulated Yeast Extract (Merck), QSP 1 liter • Inoculum: spores suspension Fungicides were solubilized in DMSO and the solution used to prepare the required range of concentrations. […] A spore suspension of C. lindemuthianum was prepared and diluted to the desired spore density. Fungicides were evaluated for their ability to inhibit spores germination and mycelium growth in liquid culture assay. The compounds were added in the desired concentration to the culture medium with spores. After 6 days incubation, fungi-toxicity of compounds was determined by spectrometric measurement of mycelium growth. Inhibition of fungal growth was determined by comparing the absorbance values in wells containing the fungicides with the absorbance in control wells without fungicides.

Botrytis cinerea [3] = assay: Botrytis cinerea in vitro cell test; assay type: cell-based; settings: 144 h, liquid culture, 6 days incubation, read-out: efficacy (inhibition of fungal growth); for inhibition at 20 ppm: 20 ppm of active ingredient; for inhibition at 50 µM: 50 μMol/l of active ingredient
Procedure: B-9. Botrytis cinerea In Vitro Cell Test • Solvent: DMSO • Culture medium: 1 g KH2PO4 (VWR), 1 g K2HPO4 (VWR), 0.5 g Urea (VWR), 3 g KNO3 (Prolabo), 10 g saccharose (VWR), 0.5 g MgSO4, 7H2O (Sigma), 0.07 g CaCl2, 2H2O (Prolabo), 0.2 mg MnSO4, H2O (Sigma), 0.6 mg CuSO4, 5H2O (Sigma), 7.9 mg ZnSO4, 7H2O (Sigma), 0.1 mg H3BO3 (Merck), 0.14 mg NaMoO4, 2H2O (Sigma), 2 mg thiamine (Sigma), 0.1 mg biotine (VWR), 4 mg FeSO4, 7H2O (Sigma), QSP 1 liter • Inoculum: spore suspension Fungicides were solubilized in DMSO and the solution used to prepare the required range of concentrations. […] A spore suspension of B. cinerea was prepared and diluted to the desired spore density. Fungicides were evaluated for their ability to inhibit spore germination and mycelium growth in liquid culture assay. The compounds were added in the desired concentration to the culture medium with spores. After 6 days incubation, fungi-toxicity of compounds was determined by spectrometric measurement of mycelium growth. Inhibition of fungal growth was determined by comparing the absorbance values in wells containing the fungicides with the absorbance in control wells without fungicides.

Pyrenophora teres = Pyrenophora teres in vitro cell test; assay type: cell-based; settings: 144 h, 50 μMol/l of active ingredient, liquid culture, 6 days incubation, read-out: efficacy (inhibition of fungal growth)
Procedure: as §1, with “B-8. Pyrenophora teres In” for “B-7. Colletotrichum lindemuthianum In”, “Inoculum: spore” for “Inoculum: spores”, “of P. teres” for “of C. lindemuthianum”, “inhibit spore” for “inhibit spores”

Botrytis cinerea [4] = assay: In vivo preventive test on Botrytis cinerea (grey mould); settings: 500 ppm of active ingredient, sprayed on young gherkin or cabbage plants 24 h before inoculation, evaluated 4 to 5 days after inoculation, read-out: efficacy
Procedure: The active ingredients were made soluble and homogenized in a mixture of Dimethyl sulfoxide/Acetone//Tween® 80 and then diluted in water to the desired concentration. The young plants of gherkin or cabbage were treated by spraying the active ingredient prepared as described above. Control plants were treated only with an aqueous solution of Acetone/Dimethyl sulfoxide/Tween® 80. After 24 hours, the plants were contaminated by spraying the leaves with an aqueous suspension of Botrytis cinerea spores.

Fusarium culmorum = Fusarium culmorum in vitro cell test; assay type: cell-based; settings: 120 h, 50 μMol/l of active ingredient, liquid culture, 5 days incubation, read-out: efficacy (inhibition of fungal growth)
Procedure: B-10. Fusarium culmorum In Vitro Cell Test • Solvent: DMSO • Culture medium: 1 g KH2PO4 (VWR), 1 g K2HPO4 (VWR), 0.5 g Urea (VWR), 3 g KNO3 (Prolabo), 10 g saccharose (VWR), 0.5 g MgSO4, 7H2O (Sigma), 0.07 g CaCl2, 2H2O (Prolabo), 0.2 mg MnSO4, H2O (Sigma), 0.6 mg CuSO4, 5H2O (Sigma), 7.9 mg ZnSO4, 7H2O (Sigma), 0.1 mg H3BO3 (Merck), 0.14 mg NaMoO4, 2H2O (Sigma), 2 mg thiamine (Sigma), 0.1 mg biotine (VWR), 4 mg FeSO4, 7H2O (Sigma), QSP 1 liter • Inoculum: spores suspension
Fungicides were solubilized in DMSO and the solution used to prepare the required range of concentrations. The final concentration of DMSO used in the assay was ≤1%.
A spore suspension of F. culmorum was prepared and diluted to the desired spore density.
Fungicides were evaluated for their ability to inhibit spore germination and mycelium growth in liquid culture assay. The compounds were added in the desired concentration to the culture medium with spores. After 5 days incubation, fungi-toxicity of compounds was determined by spectrometric measurement of mycelium growth. Inhibition of fungal growth was determined by comparing the absorbance values in wells containing the fungicides with the absorbance in control wells without fungicides.

Row | Compound | chromatographic logP [1] | inhibition at 50 µM (Botrytis cinerea [3]) | pest or weed control at 500 ppm (Botrytis cinerea [4]) | also measured
1 | COc1cccc(Sc2nnc(Cl)cc2C2=NOC[C@@H](Cc3ccc(Cl)cc3Cl)N2)c1 (racemic) [Compound I-034] | 4.3 | – | – | inhibition at 20 ppm (Pyricularia oryzae; read-out: efficacy (inhibition of fungal growth), 20 ppm of active ingredient, liquid culture, 5 days incubation): 70 to 79%; inhibition at 20 ppm [2]: 90 to 100%; inhibition at 20 ppm (Botrytis cinerea [3]): 90 to 100%
2 | Cc1ccc([C@H]2CON=C(c3c(Sc4ccc(F)c(Cl)c4)nnc(C)c3C)N2)s1 (racemic) [Compound I-083] | 3.26 | 90 to 100% | – | inhibition at 50 µM [2]: 90 to 100%
3 | Cc1ccc(C[C@H]2CON=C(c3c(Sc4cccc(OC(F)(F)F)c4)cnc4ccccc34)N2)c(C)c1 (racemic) [Compound I-025] | 4.73 | – | – | inhibition at 20 ppm [2]: 90 to 100%; inhibition at 20 ppm (Botrytis cinerea [3]): 90 to 100%
4 | Cc1cc([C@@H]2CON=C(c3c(Sc4cccc(C(F)(F)F)c4)nnc(C)c3C)N2)c(C)s1 (racemic) [Compound I-086, (5R,S)-(2,5-dimethyl-3-thienyl)-3-(5,6-dimethyl-3-{[3-(trifluoromethyl)phenyl]sulfanyl}pyridazin-4-yl)-5,6-dihydro-4H-1,2,4-oxadiazine] | 3.72 | 90 to 100% | – | inhibition at 50 µM (Pyricularia oryzae; read-out: efficacy (inhibition of fungal growth), 50 μMol/l of active ingredient, liquid culture, 5 days incubation): 70 to 79%; inhibition at 50 µM [2]: 90 to 100%; inhibition at 50 µM (Pyrenophora teres): 90 to 100%
5 | Cc1ccc([C@H]2CON=C(c3c(Sc4ccc(C(F)(F)F)cc4)nnc4ccccc34)N2)s1 (racemic) [Compound I-130] | 3.81 | 70 to 79% | – | –
6 | Cc1cccc(Sc2nnc(C)c(C)c2C2=NOC[C@H](c3ccc(C)s3)N2)n1 (racemic) [Compound I-127] | 2.21 | – | 80 to 89% | –
7 | Cc1ccc([C@H]2CON=C(c3c(Sc4ccccc4)nnc(C)c3C)N2)s1 (racemic) [Compound I-117] | 2.69 | 90 to 100% | 90 to 100% | inhibition at 50 µM (Fusarium culmorum): 80 to 89%
8 | Cc1ccc([C@@H]2CON=C(c3c(Sc4ccccc4C)nnc(C)c3C)N2)s1 (racemic) [Compound I-045] | 2.94 | 80 to 89% | 80 to 89% | –
9 | Cc1ccc([C@@H]2CON=C(c3c(Sc4ccc(C)c(Cl)c4)nnc(C)c3C)N2)s1 (racemic) [Compound I-082] | 3.47 | 90 to 100% | – | –
10 | Cc1cc([C@@H]2CON=C(c3c(Sc4ccc(OC(F)(F)F)cc4)nnc(C)c3C)N2)c(C)s1 (racemic) [Compound I-119] | 3.87 | 70 to 79% | – | –
11 | FC(F)(F)Oc1cccc(Sc2cnc(Cl)cc2C2=NOC[C@H](Cc3ccc(Cl)cc3Cl)N2)c1 (racemic) [Compound I-020] | 5.13 | – | – | inhibition at 20 ppm [2]: 90 to 100%
12 | Cc1ccc([C@H]2CON=C(c3c(Sc4ccc(F)c(F)c4)nnc(C)c3C)N2)s1 (racemic) [Compound I-085] | 2.99 | 90 to 100% | 90 to 100% | inhibition at 50 µM (Fusarium culmorum): 70 to 79%
13 | Cc1ccc([C@@H]2CON=C(c3c(Sc4cccc5ccccc45)nnc4ccccc34)N2)s1 (racemic) [Compound I-102] | 3.8 | 80 to 89% | – | inhibition at 50 µM [2]: 80 to 89%
